Results as given in patent US12565475B2, “Small molecule compound inhibiting signal transmission path of TLR7 and TLR9 and use thereof” (AJOU UNIVERSITY INDUSTRY-ACADEMIC COOPERATION FOUNDATION, priority 2019, dated 2026).

Tests used:
TLR9 [1] = target: T1, TLR9 (Homo sapiens, UniProt Q9NR96); details: Target TLR9; values from cited literature/patent; cited from earlier work
T1 sequence (Q9NR96 26-1032): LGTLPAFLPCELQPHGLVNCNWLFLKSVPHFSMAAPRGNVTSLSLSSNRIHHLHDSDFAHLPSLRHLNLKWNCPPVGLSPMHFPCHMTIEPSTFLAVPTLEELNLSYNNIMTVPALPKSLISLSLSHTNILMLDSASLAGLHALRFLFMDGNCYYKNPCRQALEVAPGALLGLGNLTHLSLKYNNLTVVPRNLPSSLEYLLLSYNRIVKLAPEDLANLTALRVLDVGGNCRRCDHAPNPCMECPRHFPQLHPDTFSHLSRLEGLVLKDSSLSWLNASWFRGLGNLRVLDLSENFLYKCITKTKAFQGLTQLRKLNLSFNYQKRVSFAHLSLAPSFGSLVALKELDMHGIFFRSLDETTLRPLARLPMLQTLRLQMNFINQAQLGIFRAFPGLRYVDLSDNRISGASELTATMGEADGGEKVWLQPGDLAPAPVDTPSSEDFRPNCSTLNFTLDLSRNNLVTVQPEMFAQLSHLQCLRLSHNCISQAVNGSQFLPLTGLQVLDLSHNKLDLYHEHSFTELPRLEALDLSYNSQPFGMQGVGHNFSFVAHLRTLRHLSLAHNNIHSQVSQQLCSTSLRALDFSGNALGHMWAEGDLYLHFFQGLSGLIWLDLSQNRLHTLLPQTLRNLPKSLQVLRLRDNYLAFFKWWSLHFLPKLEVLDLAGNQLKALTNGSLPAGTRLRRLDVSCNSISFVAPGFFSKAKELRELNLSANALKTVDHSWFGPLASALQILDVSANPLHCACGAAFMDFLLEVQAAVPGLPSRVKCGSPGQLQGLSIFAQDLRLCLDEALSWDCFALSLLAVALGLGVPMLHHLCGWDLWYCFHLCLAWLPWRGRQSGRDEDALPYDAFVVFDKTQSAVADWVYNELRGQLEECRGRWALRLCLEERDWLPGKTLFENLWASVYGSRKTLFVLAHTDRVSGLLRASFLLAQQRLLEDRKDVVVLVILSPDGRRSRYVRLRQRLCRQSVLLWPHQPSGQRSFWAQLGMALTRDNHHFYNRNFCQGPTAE

TLR7 = target: T2, TLR7 (Mus musculus, UniProt P58681); test: TLR7-mediated TNF-α secretion (imiquimod stimulation), ELISA; format: cell-based, murine; details: for inhibitory efficacy on TLR7-mediated TNF-α secretion: RAW 264.7, 10 or 50 μM, imiquimod (FIG. 4B)
T2 construct: endogenous in cells; host or cells: RAW 264.7
T2 sequence (P58681 27-1050): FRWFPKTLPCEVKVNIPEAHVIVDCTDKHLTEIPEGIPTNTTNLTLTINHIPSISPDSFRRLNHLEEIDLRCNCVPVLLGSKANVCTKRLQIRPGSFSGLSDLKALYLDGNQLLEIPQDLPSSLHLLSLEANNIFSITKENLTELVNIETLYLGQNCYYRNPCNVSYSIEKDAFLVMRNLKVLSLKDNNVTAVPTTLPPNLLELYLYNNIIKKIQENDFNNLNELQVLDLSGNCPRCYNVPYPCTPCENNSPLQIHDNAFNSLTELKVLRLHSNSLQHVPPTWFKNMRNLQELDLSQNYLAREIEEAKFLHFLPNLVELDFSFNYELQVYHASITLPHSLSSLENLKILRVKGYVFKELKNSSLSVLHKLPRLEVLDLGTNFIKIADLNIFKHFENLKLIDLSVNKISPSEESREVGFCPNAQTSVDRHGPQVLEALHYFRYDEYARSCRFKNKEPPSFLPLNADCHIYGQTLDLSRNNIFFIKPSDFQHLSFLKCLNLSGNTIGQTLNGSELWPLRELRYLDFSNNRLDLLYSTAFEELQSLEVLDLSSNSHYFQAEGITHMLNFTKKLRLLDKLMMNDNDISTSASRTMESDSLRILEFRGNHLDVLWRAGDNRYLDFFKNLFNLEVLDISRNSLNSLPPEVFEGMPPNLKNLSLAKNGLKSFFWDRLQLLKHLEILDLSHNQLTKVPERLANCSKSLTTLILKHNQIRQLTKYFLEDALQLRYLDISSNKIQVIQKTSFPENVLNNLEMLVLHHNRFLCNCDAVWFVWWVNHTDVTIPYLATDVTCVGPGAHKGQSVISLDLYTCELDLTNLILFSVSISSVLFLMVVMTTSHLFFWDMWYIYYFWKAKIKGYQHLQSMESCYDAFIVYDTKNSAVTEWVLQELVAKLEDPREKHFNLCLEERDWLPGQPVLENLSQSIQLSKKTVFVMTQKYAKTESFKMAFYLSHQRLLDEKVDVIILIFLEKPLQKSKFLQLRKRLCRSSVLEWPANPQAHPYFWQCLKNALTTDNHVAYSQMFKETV
Description: (§1) Agonists specific to TLR1/TLR2 (Pam3CSK4), TLR2/TLR6 (FSL-1), TLR3 (Poly I:C), TLR7 (imiquimod), and TLR8 (TL8-506) were purchased from InvivoGen Ltd. (Hong-Kong, China), and a TLR4-specific agonist (LPS from E. coli O111:B4) was purchased from Sigma-Aldrich, Inc. For TLR9-specific stimulation, class C CpG-ODN (ODN2395, 5′-TCGTCGTTTTCGGCGCGCGCCG-3′) having full phosphorothioate backbone modification was synthesized (Bioneer, Inc., Daejeon, Korea). All TLR agonists were dissolved in deionized water and applied to a culture media for TLR activation. The cells were treated with test compounds or a control medium for 1 hour, and then stimulated with a TLR agonist for 4 hours, or 24 hours in the case of poly(I:C), and the cytokine secretion was monitored.
(§2) RAW 264.7 or differentiated THP-1 cell lines were seeded onto a 96-well culture plate at a density of 2×10^4 cells/well. The cells were treated with test compounds for 1 hour followed by the stimulation with TLR agonists for 4 hours. The supernatant was transferred to pre-coated assay plates, and the secretion levels of mouse and human TNF-α were measured by respective ELISA kits (Invitrogen, Carlsbad, CA, USA). All experiments were performed according to the manufacturer's instructions. Absorbance was measured by a microplate reader spectrophotometer (Molecular Devices, Inc., San Jose, CA, USA), and data was interpolated from a standard curve using SoftMax Pro 5.3 software (Molecular Devices, Inc.).
(§3) In order to evaluate the antagonistic effect of each compound on TLR7/TLR9 through ELISA (enzyme-linked immunosorbent assay), RAW 264.7 cells were pretreated with the eight compounds followed by the stimulation with a TLR7-specific agonist (imiquimod, 3.61 μM) or with a TLR9-specific agonist (ODN2395, 0.5 μM). […] Since the two ligands had no agonistic effect per se (FIG. 3B), the increased cytokine production may be due to cell activation (or non-specific cellular stress) by co-treatment. Consequently, TIC10 was selected as the most suitable lead for further optimization to improve the inhibitory potency against both TLR7 and TLR9.

TLR9 [2] = target: T3, TLR9 (Mus musculus, UniProt Q9EQU3); test: TLR9-mediated TNF-α secretion (ODN2395 stimulation), ELISA; format: cell-based, murine; details: for inhibitory efficacy on TLR9-mediated TNF-α secretion: RAW 264.7, 10 or 50 μM, ODN2395 (FIG. 4A)
T3 construct: endogenous in cells; host or cells: RAW 264.7
T3 sequence (Q9EQU3 26-1032): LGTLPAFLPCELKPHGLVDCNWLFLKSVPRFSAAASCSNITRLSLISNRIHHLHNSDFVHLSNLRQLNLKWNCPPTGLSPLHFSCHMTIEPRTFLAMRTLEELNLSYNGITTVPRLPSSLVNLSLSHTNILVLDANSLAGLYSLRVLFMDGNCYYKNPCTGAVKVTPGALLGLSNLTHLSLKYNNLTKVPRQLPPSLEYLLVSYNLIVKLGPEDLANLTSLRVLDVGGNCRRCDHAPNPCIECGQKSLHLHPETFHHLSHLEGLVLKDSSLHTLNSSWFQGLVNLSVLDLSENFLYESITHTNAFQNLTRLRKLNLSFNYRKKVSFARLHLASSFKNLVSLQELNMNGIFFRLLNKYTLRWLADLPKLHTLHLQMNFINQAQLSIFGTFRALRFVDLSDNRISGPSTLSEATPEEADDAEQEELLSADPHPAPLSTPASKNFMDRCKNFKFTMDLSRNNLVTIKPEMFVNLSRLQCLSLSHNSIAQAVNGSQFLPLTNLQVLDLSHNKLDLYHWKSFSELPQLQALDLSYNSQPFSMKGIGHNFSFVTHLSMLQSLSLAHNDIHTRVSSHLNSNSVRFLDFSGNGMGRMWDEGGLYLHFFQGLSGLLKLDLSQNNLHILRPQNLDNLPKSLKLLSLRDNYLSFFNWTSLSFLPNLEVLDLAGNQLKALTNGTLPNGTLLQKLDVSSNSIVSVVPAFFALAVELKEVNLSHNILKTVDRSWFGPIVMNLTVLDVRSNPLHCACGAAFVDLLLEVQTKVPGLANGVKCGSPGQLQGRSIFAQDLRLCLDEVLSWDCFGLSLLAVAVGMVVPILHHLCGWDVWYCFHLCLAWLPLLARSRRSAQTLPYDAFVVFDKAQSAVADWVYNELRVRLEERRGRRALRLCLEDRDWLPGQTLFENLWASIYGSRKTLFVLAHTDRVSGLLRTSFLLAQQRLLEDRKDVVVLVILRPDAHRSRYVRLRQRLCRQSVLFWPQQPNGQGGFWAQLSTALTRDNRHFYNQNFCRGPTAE
Description: as §1, §2, §3

RAW 264.7 cells [3] = test: MTT cell viability / cytotoxicity assay; format: cell-based, murine; details: 50 μM, 24 hours
Description: RAW 264.7 cells were seeded onto 96-well cell culture plate at a density of 2×10^4 cells/well and allowed to stabilize overnight. The cells were treated with test compounds or a negative control (DMSO; dimethyl sulfoxide) for 24 hours, where the final DMSO concentration of the treated well was 0.25%. Then, the medium was removed, and 500 μg/ml of an MTT (3-(4,5-dimethylthiazol-2-yl)-2,5-diphenyltetrazolium bromide, InvivoGen Ltd.) solution was added to each well. After 3 hours, the solution was replaced with DMSO (Biosesang Co. Ltd., Korea), and incubated for an additional 30 minutes to complete formazan dissolution. Absorbance was measured by a microplate colorimetric reader at a wavelength of 595 nm and normalized to the control for the determination of the cell viability. All incubations were performed under the same conditions as described above.
Before testing the antagonistic properties of the selected compounds, an MTT (3-(4,5-dimethylthiazol-2-yl)-2,5-diphenyltetrazolium bromide) assay was performed, whereby the cytotoxicity of the compounds in a murine macrophage cell line (RAW 264.7) was monitored. […] The other ligands were excluded as test subjects due to the high cytotoxicity thereof.

RAW 264.7 cells [4] = test: Agonistic activity: TNF-α secretion after stimulation with compound alone (ELISA); format: cell-based, murine; details: compound alone 24 hours

Row | Compound | IC50 (TLR9 [1]) [µM] | inhibitory efficacy on TLR7-mediated TNF-α secretion (TLR7) | inhibitory efficacy on TLR9-mediated TNF-α secretion (TLR9 [2]) | other results
1 | CN1CCN(c2ccc(-c3nc(NCCN4CCOCC4)c4ccccc4n3)cc2)CC1 [CHEMBL457704] | 0.02 | – | – | –
2 | CN(C)CCNc1nc(-c2ccc(N3CCN(C)CC3)cc2)nc2ccccc12 [CHEMBL515364] | 0.03 | – | – | –
3 | COc1cc2nc(-c3ccc(N4CCN(C)CC4)cc3)nc(NCCN3CCOCC3)c2cc1OC [CPG-52364] | 0.0046 | – | – | –
4 | COc1ccc(-c2cnc(NCc3cccc(OC)c3O)n2C)cc1 [TIC10, 2-methoxy-6-({[5-(4-methoxyphenyl)-1-methyl-1H-imidazol-2-yl]amino}methyl)phenol] | – | – | – | inhibition of TLR7-mediated TNF-α secretion (TLR7; RAW 264.7, at 50 µM, pretreated 1 hour, imiquimod 3.61 μM 4 hours): inhibited; inhibition of TLR9-mediated TNF-α secretion (TLR9 [2]; RAW 264.7, 50 μM, pretreated 1 hour, ODN2395 0.5 μM 4 hours): significantly inhibit; cytotoxicity (MTT assay) (RAW 264.7 cells [3]): non-toxic or marginally toxic; expression of proinflammatory cytokine TNF-α on stimulation with ligand alone (agonistic role) (RAW 264.7 cells [4]): did not induce the expression of proinflammatory cytokine TNF-α
5 | CCOc1ccc(-c2cnc(NCc3ccc(OC)c(OC)c3OC)n2C)cc1 [TIC10-3] | – | improved inhibitory efficacy compared to TIC10 | improved inhibitory efficacy compared to TIC10 | –
6 | CCOc1ccc(-c2cnc(NCc3cccc(OC)c3OC)n2C)cc1 [TIC10-8] | – | improved inhibitory efficacy compared to TIC10 | improved inhibitory efficacy compared to TIC10 | –
